Results as given in patent US8748480B2, “Methods for treating opioid tolerance” (priority 2005, dated 2014).
pIC50: −log10 of the molar value. Read-outs that look alike come from different tables or passages of the source. No end group written: not given here.

Tests used:
[1] = system: PLC-β3; test: Purified PLC-β3 activation by purified βγ (FIG. 6); format: biochemical; conditions: purified PLC-β3 with purified βγ
Protocol: (§1) FIG. 6 is a bar graph illustrating inhibition of PLC-β2 and PLC-β3 activation in the presence of exemplary compounds of the instant invention.
(§2) The ability of NSC119910 analogs to selectively modulate activation PLC-β2 and -β3 was analyzed. In this assay, PLC-β2 and PLC-β3 were purified and PLC enzymatic activity was measured in the presence or absence of purified βγ and in the presence or absence of analog.

[2] = system: fMLP-dependent ERK activation; test: fMLP-dependent ERK activation; format: cell-based
[3] = biological target: T1, Gβγ (protein interaction site of Gβ) (Rattus norvegicus, UniProt P54311); test: Phage ELISA: small molecules competing with SIGK-phage binding to immobilized biotinylated Gβγ
T1 construct: made in house; host or cells: Sf9 insect cells (baculovirus), co-expressed with BirA and (His)6-Gαi1
Protocol: Exemplary compounds of the present invention were initially selected from a computational screen to identify ligands that bind to the novel protein interaction site of Gβ. The computational screen involved using SYBYL molecular modeling software to model the protein interaction site of Gβ as determined in the X-ray structure disclosed herein. The computational docking screen was performed with the National Cancer Institute 1900 compound library wherein the compounds were tested for docking to the protein interaction site of Gβ using FLEXX™ (Tripos, Inc., St. Louis, Mo.) for docking and CSCORE™ (Tripos, Inc.) to evaluate the energetics and fitness of the docked structure. Algorithm-dependent lists of compounds, predicted to interact with the protein interaction site of Gβ and the structural model of the interaction, were generated. Selected compounds were subsequently analyzed in the phage ELISA binding assay disclosed herein to assess whether these compounds could bind to the protein interaction site of Gβ and interfere with protein interactions at this surface.
Wild-type Gβ1 and Gβ1 mutants were made in the baculovirus vector PDW464 which encodes a biotinylation site at a lysine upstream of the amino terminus of Gβ1 (Goubaeva, et al. (2003) supra). Mutants were generated by overlap extension PCR using standard protocols. The wild-type and mutant Gβ1 constructs consisted of a 20 amino acid biotin acceptor peptide (BAP) sequence fused in-frame with the amino-terminus of rat Gβ1 subunit. When coexpressed with biotin holoenzyme synthetase (BirA) in Sf9 cells, the Gβ1 subunit becomes covalently biotinylated in vivo at the Specific lysine acceptor residue in the BAP.
Phage ELISA assays used to assess peptide binding to wild-type and mutant b-βγ were performed according to standard methods (Smrcka and Scott (2002) Methods Enzymol. 344:557-76). Briefly, 1 μg streptavidin was immobilized in the well of a […] overnight at 4° C. The wells were blocked with 100 μL of 2% bovine serum albumin (BSA) in Tris-buffered saline (TBS) for 1 hour at 4° C. followed by three washes of 1×TBS/0.5% TWEEN®. […] The wells were washed, followed by the addition of 1×10^6 to 1×10^10 phage particles and incubated at 4° C. for 3 hours. The wells were then washed six times with TBS/0.5% TWEEN® followed by addition of 40 μL of 1:5000 dilution of anti-M13 antibody (Pharmacia, Uppsala, Sweden) and incubated at room temperature for 1 hour. The wells were washed, followed by the addition of 40 μL of (2,2′-Azino-bis(3-ethylbenzthiazoline)-6-sulfonic acid (ABTS) and the colorimetric reaction was monitored at 405 nm. Non-specific binding was subtracted for each reading.
A phage ELISA assay was used to determine whether small molecules identified in the computational screen could interact with the Gβγ protein interaction surface. […] The screen was based on a reduction in the optical density (OD) of wells containing Gβγ subunits and phage. […] Three background wells contained no βγ subunits.
As disclosed herein, biotinylated Gβγ subunits were immobilized on the surface of a 96-well plate coated with streptavidin, phage displaying Gβγ-binding peptides were subsequently added and binding in the presence and absence of test compounds detected with an anti-phage antibody.

[4] = biological target: T2, Fαi1·b-Gβ1γ2 heterotrimer (Rattus norvegicus, UniProt P54311); test: Flow cytometry dissociation of Fαi1 from preformed heterotrimer with b-Gβ1γ2; format: binding; conditions: peptide added to preformed Fαi1·b-Gβ1γ2
T2 construct: made in house; host or cells: Sf9 insect cells (baculovirus) for b-Gβ1γ2
Protocol: (§3) Fluorescein-labeled Gαi1 (Fαi1) was prepared in accordance with standard methods (Sarvazyan, et al. (1998) supra). Assays were used to determine peptide effects on Gα-Gβγ interactions included competition and dissociation assays (Ghosh, et al. (2003) supra). Briefly, for competition-based assays, 100 pM Fαi1 and indicated concentrations of peptides were added to 50 pM b-Gβ1γ2 immobilized on 10^5 beads per mL and incubated at room temperature for 30 minutes to reach equilibrium. The bead-associated fluorescence was then recorded in a BD Biosciences FACSCALIBUR™ flow cytometer. Data was corrected for background fluorescence and fit with a sigmoid dose response curve using Graph Pad Prism 4. To measure dissociation of Fαi1 from b-Gβ1γ2, 100 pM of Fαi1 was incubated with 50 pM immobilized b-Gβ1γ2 at room temperature for 15-20 minutes. The fluorescence of bound Fαi1 subunit was measured, followed by the addition of a 200-fold excess of unlabeled Gαi1 or peptides and the amount of Fαi1 remaining bound to the beads was measured at the indicated times.

[5] = system: differentiated HL-60 neutrophil; test: Cytosolic Ca2+ in agonist-activated neutrophils (fura-2); format: cell-based
Protocol: FIG. 4 is a bar graph depicting the peak cytosolic Ca^2+ concentrations for neutrophils activated with fMLP or ATP agonists in the presence or absence of 10 μM NSC119910. fMLP, n=3; ATP, n=2.
Gβγ-regulated activities of PI3Kγ and PLC-β2/-β3 are important in chemoattractant-induced responses and inflammation. PI3Kγ is involved in the production of TI-IgλL and mice deficient in PI3Kγ, lack neutrophil migration (Li, et al, (2000) Science 287:1046-9). The PLC pathway is involved in down-modulation of chemotaxis and in hyperinflammatory conditions (Li, et al. (2000) supra). Therefore, it was determined whether NSC119910 could inhibit the Gβγ/PLC interaction and block PLC activation.
Ca^2+ fluxes were measured using two 35 mL cultures of differentiated HL-60 neutrophil cultures (0.2×10^6 cells/mL). Cells were cultured for three days with in DMSO (1.2%), washed in HSS and resuspended in 2 mL HBSS at a concentration of 7×10^6 cells/mL. Addition of DMSO to the growth medium induces differentiation of these cells into morphologically and functionally mature neutrophils (Collins, et al. (1978) Proc. Natl. Acad. Sci. USA 75:2458; Collins, et al., (1979) J. Exp. Med. 149:969). Neutrophils were preloaded with fura-2 (1 μM), a fluorescent Ca^2+-sensitive indicator (Suh, et al., (1996) J. Biol. Chem. 271:32753), for 45 minutes, washed with HBSS and resuspended in 2 mL of indicator-free HBSS. An 140 μL aliquote of cells was added to a total of 2 mL HBSS. Fluorescence ratios were taken by dual excitation at 340 and 380 nm and emission at 510 nm. After a stable baseline was established, either DMSO or NSC119910 was added and incubated for 5 minutes. Subsequently, either fMLP or ATP agonists were added to activate release of Ca^2+ from intracellular stores.

[6] = system: voltage-gated N-type Ca++ channel; conditions: cited from earlier work
[7] = system: type I adenylyl cyclase; conditions: cited from earlier work
[8] = system: PLC β2; conditions: cited from earlier work
[9] = system: PI3K; conditions: cited from earlier work
[10] = system: PLC β; test: Phospholipase C-Gβγ interaction, PLC enzymatic activity (FIG. 3); format: biochemical; conditions: in vitro
Protocol: FIG. 3 is a graph illustrating the inhibition of phospholipase C-Gβγ interactions by NSC119910. Phospholipase enzymatic activity was determined using well-established methods (Ghosh and Smrcka (2003) Meth. Mol. Biol. 237:67-75).

[11] = biological target: Gβγ subunits (Rattus norvegicus, UniProt P54311); test: Gα subunit-Gβγ interaction (FIG. 2); format: binding
Protocol: FIG. 2 is a graph illustrating that NSC119910 binds to Gβγ and interferes with physiologically relevant protein interactions such as with the Gα subunit.
as §3

[12] = system: Mice; test: 55° C. warm-water tail-flick test, intracerebroventricular injection; format: in vivo; conditions: 100 nmol NSC119910 i.c.v. with morphine
Protocol: Opioid receptors, μ, Δ, and κ, couple to Gi and Go proteins through α and βγ subunits, and regulate a number of signaling pathways. […] Mice were tested 20 minutes after the injection for an analgesic response in a 55° C. warm-water tail-flick test (Wells, et al. (2001) J. Pharmacol. Exp. Therapeut. 297:597-605).

[13] = system: PLC-β2; test: Purified PLC-β2 activation by purified βγ (FIG. 6); format: biochemical; conditions: purified PLC-β2 with purified βγ
Protocol: as §1, §2

In the case of `N[C@H]1CCc2cc(O)c(O)c(O)c2-c2ccc(O)c(=O)cc21` [NSC201400], the PLC-β3 activation [1] was “selectively potentiated”, the “fMLP-dependent ERK activation” value [2] was “do not interfere” and the pIC50 ([3]; read-out: IC50) was 7.00.

`Nc1c(S(=O)(=O)O)cc(Nc2cccc(S(N)(=O)=O)c2)c2c1C(=O)c1ccccc1C2=O` [NSC117079] gave a pIC50 ([3]; read-out: IC50) of 4.37.

For `O=C(O)C1CC2C3(Cl)C(Cl)=C(Cl)C(Cl)C2(CC1c1c2ccc(=O)c(O)c-2oc2c(O)c(O)ccc12)C3(Cl)Cl` (stereo not shown) [NSC158110], the “fMLP-dependent ERK activation” value [2] was “do not interfere”.

In the case of `C[C@H](NC(=O)[C@H](CS)NC(=O)[C@@H](N)CO)C(=O)N[C@@H](CCCNC(=N)N)C(=O)N[C@@H](Cc1ccccc1)C(=O)N[C@@H](Cc1ccccc1)C(=O)NCC(=O)N[C@H](C(=O)N1CCC[C@H]1C(=O)NCC(=O)N[C@@H](CS)C(=O)N[C@H](C(=O)O)[C@@H](C)O)[C@@H](C)O` [SCAR], the “dissociation of a preformed heterotrimer” value [4] was “could not promote dissociation”.

Work on `Nc1ccc(-c2ccc(Nc3cc(S(=O)(=O)O)c(N)c4c3C(=O)c3ccccc3C4=O)cc2)c(S(=O)(=O)O)c1` [NSC125910] yielded a pIC50 ([3]; read-out: IC50) of 4.17.

With `O=C(O)c1cccc2cccc(-c3c4ccc(=O)c(O)c-4oc4c(O)c(O)ccc34)c12` [NSC119893] the “Ca2+ mobilization” value [5] was “block” and the “fMLP-dependent ERK activation” value [2] was “without interfering”.

With `CC[C@H](C)[C@H](NC(=O)[C@H](CC(N)=O)NC(=O)[C@H](CC(C)C)NC(=O)[C@H](C)NC(=O)[C@H](C)NC(=O)[C@H](CCCNC(=N)N)NC(=O)[C@@H](NC(=O)[C@@H](N)CO)[C@@H](C)CC)C(=O)N[C@@H](CC(C)C)C(=O)NCC(=O)N[C@@H](Cc1ccc(O)cc1)C(=O)N1CCC[C@H]1C(=O)N[C@@H](CC(=O)O)C(=O)N[C@@H](Cc1ccc(O)cc1)C(=O)N[C@@H](CC(=O)O)C(=O)O` [SIRK(Lys4Ala)] the “dissociation of a preformed heterotrimer” value [4] was “failed to accelerate heterotrimer dissociation”.

For `CC[C@H](C)[C@H](NC(=O)[C@H](CC(N)=O)NC(=O)[C@H](CC(C)C)NC(=O)[C@H](C)NC(=O)[C@H](CCCCN)NC(=O)[C@H](CCCNC(=N)N)NC(=O)[C@@H](NC(=O)[C@@H](N)CO)[C@@H](C)CC)C(=O)N[C@@H](CC(C)C)C(=O)NCC(=O)N[C@@H](Cc1ccc(O)cc1)C(=O)N1CCC[C@H]1C(=O)N[C@@H](CC(=O)O)C(=O)N[C@@H](Cc1ccc(O)cc1)C(=O)N[C@@H](CC(=O)O)C(=O)O` [SIRK], the “dissociation of a preformed heterotrimer” value [4] is listed as “promotes dissociation”, the “Gβ1γ2 regulation of voltage-gated N-type Ca++ channel activity” value [6] is listed as “little or no effect” and the “Gβ1γ2 regulation of type I adenylyl cyclase” value [7] is listed as “little or no effect”. The pIC50 ([8]; read-out: IC50 for inhibition of PLC β2 activation by Gβ1γ2) was 5.30 and the “activation of PI3K” value [9] was “blocked”.

Work on `O=C1c2ccccc2C(=O)c2c(Nc3cc4c5c(ccc6c7ccc8c9c(cc(Nc%10cccc%11c%10C(=O)c%10ccccc%10C%11=O)c(c3c56)c97)-c3ccccc3C8=O)C(=O)c3ccccc3-4)cccc21` [NSC23128] yielded a pIC50 ([3]; read-out: IC50) of 4.80.

For SIRKALNILAYPDYD [SIRK(Gly10Ala)], the “dissociation of a preformed heterotrimer” value [4] is listed as “could still accelerate heterotrimer dissociation” and the “change of IC50 relative to wild-type SIRK peptide” value ([8]; inhibition of PLC β2 activation by Gβ1γ2) is listed as 12 fold.

With `Ic1ccc2c(c1)N(c1ccccc1)c1cc(Nc3ccc4nc5ccc(I)cc5[n+](-c5ccccc5)c4c3)ccc1N2` [NSC402959] the pIC50 ([3]; read-out: IC50) was 5.70.

For `O=C(O)C1CCCCC1c1c2ccc(=O)c(O)c-2oc2c(O)c(O)ccc12` (stereo not shown) [NSC119910], the “Ca2+ mobilization” value [5] was “block”, the “time taken for fluorescence to decline to half-peak values” ([5]; 10 μM compound, fMLP or ATP (FIG. 5)) was “not substantially affected” and the “increase in [Ca2+]” value ([5]; ATP-stimulated neutrophils, 10 μM compound) was “not significantly suppressed”. The “increase in cytosolic Ca2+” value ([5]; fMLP-stimulated neutrophils, 10 μM compound) was “suppressed”, the “fMLP-dependent ERK activation” value [2] was “without interfering” and the pIC50 [3] was 7.00. For the same compound, the “PLC β-Gβγ interaction, enzymatic activity of PLC β” value [10] was “inhibited”, the “interactions of Gα subunit with Gβγ subunits” value [11] was “blocked” and the “shift to the left in morphine dose-response curve” value [12] was 11 fold.

`CCc1cc2c(c3ccc(C(=O)CBr)cc13)CCCC2` [NSC30820] showed a pIC50 ([3]; read-out: IC50) of 7.00.

With `O=C(O)/C=C/c1c2ccc(=O)c(O)c-2oc2c(O)c(O)ccc12` [NSC119911] the “fMLP-dependent ERK activation” value [2] was “do not interfere” and the PLC-β2 activation [13] was “block PLC-β2 activation more effectively than PLC-β3 activation”.
